According to patent US8946198B2, “Estrogen replacement regimen” (priority 2002, dated 2015):

Columns and labels:
progesterone receptors = target: T1, progesterone receptors (Homo sapiens, UniProt P06401); conditions: cited from earlier work
T1 sequence (P06401 1-933): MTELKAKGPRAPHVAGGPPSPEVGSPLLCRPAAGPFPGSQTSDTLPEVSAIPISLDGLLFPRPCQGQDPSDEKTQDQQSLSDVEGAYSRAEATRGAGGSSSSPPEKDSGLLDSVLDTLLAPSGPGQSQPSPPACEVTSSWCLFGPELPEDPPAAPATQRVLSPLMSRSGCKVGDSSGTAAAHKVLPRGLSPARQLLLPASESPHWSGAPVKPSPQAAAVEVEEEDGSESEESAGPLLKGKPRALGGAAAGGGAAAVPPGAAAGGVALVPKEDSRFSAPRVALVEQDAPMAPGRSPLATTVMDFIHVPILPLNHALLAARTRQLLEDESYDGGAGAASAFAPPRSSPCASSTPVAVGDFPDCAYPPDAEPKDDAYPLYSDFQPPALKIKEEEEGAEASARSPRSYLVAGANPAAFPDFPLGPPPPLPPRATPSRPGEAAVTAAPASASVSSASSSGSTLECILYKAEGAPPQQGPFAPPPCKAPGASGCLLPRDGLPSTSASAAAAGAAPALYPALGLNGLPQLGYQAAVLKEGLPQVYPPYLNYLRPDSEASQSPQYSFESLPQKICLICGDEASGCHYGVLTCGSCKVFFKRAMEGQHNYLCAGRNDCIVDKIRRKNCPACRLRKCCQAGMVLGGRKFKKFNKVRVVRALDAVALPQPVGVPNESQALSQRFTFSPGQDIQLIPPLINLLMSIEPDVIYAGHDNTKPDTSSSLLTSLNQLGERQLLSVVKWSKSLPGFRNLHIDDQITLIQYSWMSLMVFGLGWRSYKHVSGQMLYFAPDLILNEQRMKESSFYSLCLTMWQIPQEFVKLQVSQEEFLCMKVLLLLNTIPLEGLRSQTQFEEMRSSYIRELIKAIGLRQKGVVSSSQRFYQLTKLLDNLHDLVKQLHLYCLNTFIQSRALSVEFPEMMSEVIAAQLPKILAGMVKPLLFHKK

[1] = target: T2, human sex-hormone-binding globulin (SHBG) (Homo sapiens, UniProt P04278); conditions: cited from earlier work
T2 sequence (P04278 30-402): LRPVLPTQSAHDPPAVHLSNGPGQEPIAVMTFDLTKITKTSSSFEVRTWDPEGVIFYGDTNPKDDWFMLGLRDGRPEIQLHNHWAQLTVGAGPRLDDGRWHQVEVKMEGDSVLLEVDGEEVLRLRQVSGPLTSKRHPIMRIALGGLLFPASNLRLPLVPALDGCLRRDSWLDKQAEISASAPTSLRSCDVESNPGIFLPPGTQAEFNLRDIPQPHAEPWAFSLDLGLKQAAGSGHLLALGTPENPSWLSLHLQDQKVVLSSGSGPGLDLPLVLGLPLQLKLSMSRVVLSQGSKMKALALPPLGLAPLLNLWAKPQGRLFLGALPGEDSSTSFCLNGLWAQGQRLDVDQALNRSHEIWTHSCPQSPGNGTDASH

[2] = test system: non-pregnant, oophorectomized ewes; assay: Restoration of the uterine blood flow response after continuous infusion, second phase; type: in vivo, sheep; conditions: after continuous infusion 220 μg day 15-28
Method: In the second phase of the study an ultra-low dose of estrogen (0.01 μg/Kg) was administered to try to restore the response, which was most diminished in the first phase of the study by continuous infusion. The second phase of the study involved continuous infusion of 220 μg of estradiol from day 15 to 28 in another 15 sheep followed by randomization into 3 groups (See FIG. 1). […] UBF was measured throughout the study.

estrogen receptor (ER) = conditions: ovariectomized non-pregnant sheep, myometrium and endometrium; cited from earlier work
[3] = test system: non-pregnant, oophorectomized ewes; assay: Uterine blood flow, MAP and heart rate during bolus vs continuous estradiol, first phase; type: in vivo, sheep
Method: In the study, fifteen non-pregnant, oophorectomized ewes were implanted with doppler flow probes (Transonic System, Ithaca, N.Y.) on the uterine artery and indwelling catheters were placed in the femoral artery and vein for mean arterial pressure (MAP) measurements and estrogen administration respectively. All animals were oophorectomized. MAP, heart rate (HR) and uterine blood flow (UBF) were recorded for 30 minutes daily for 14 days after at least 60 minutes of adaptation in the recording room. A baseline for each parameter of each sheep was established by averaging values obtained from day 8 through 14 after the last surgery. On day 14, sheep were divided randomly into three groups consisting of 5 animals each. […] The third group (Control) served as a vehicle control. Treatment groups received estrogen from day 15 through 28 and parameters were recorded daily throughout this period. […] It seems that none of the outcome parameters achieved a steady state during the study period.

[4] = continuous iv infusion 220 μg daily

| SMILES | binding to progesterone receptors (progesterone receptors) | affinity for SHBG [1] | UBF response to standard bolus doses after 2 days of ultra-low boluses ([2]; 0.01 μg/Kg bolus 2 days, then standard daily bolus (printed 1 μg/Kg) for 3 days (FIG. 4)) | UBF response to standard bolus doses after 2 days of standard boluses ([2]; 10 μg/Kg bolus 2 days, then 10 μg/Kg for 3 more days (FIG. 3)) | UBF response to standard bolus doses after 2 days of saline boluses ([2]; saline 2 days, then 10 μg/Kg bolus daily for 3 days (FIG. 2)) | effect on ER expression at physiologic concentrations (estrogen receptor (ER)) | effect on ER expression at supra-physiologic doses (estrogen receptor (ER)) | HR on the first day [3, 4] | HR on the second day [3, 4] | MAP decrease in the first two days [3, 4] [%] | increase in UBF at two days of treatment [3, 4] [%] | UBF for the next 12 days of the study ([3]; continuous iv infusion 220 μg daily, after day 2 of treatment) | MAP during the rest of the study ([3]; continuous iv infusion 220 μg daily, after the first two days) | UBF after 24 hours (before the next bolus) ([3]; daily single iv bolus 10 μg/kg) | daily intermittent increase in HR ([3]; daily single iv bolus 10 μg/kg) | effect on MAP (mean arterial pressure) ([3]; daily single iv bolus 10 μg/kg) | HR decrease to levels below the baseline after 24 hours ([3]; daily single iv bolus 10 μg/kg, 24 hours after bolus) | increase in UBF (uterine blood flow), start of gradual increase ([3]; daily single iv bolus 10 μg/kg, start of the gradual increase in the first 4 days, vs baseline) [%] |
| --- | --- | --- | --- | --- | --- | --- | --- | --- | --- | --- | --- | --- | --- | --- | --- | --- | --- | --- |
| C#C[C@]1(O)CC[C@H]2[C@@H]3CCC4=CCCC[C@@H]4[C@H]3C(=C)C[C@@]21CC [desogestrel, 13-ethyl-11-methylene-18,19-dinor-17 alpha-pregn-4-en-20-yn-17-ol] | bind to progesterone receptors | lack of affinity | – | – | – | – | – | – | – | – | – | – | – | – | – | – | – | – |
| C#C[C@]1(OC(C)=O)CC[C@H]2[C@@H]3CCC4=CC(=NO)CC[C@@H]4[C@H]3CC[C@@]21CC (mixture of isomers) [norgestimate] | bind to progesterone receptors | lack of affinity | – | – | – | – | – | – | – | – | – | – | – | – | – | – | – | – |
| C[C@]12CC[C@@H]3c4ccc(O)cc4CC[C@H]3[C@@H]1CC[C@@H]2O [17β-estradiol] | – | – | complete response | no response at all | partial response | promoted ER expression | inhibited ER expression | increased significantly | dropped to baseline levels | 8.6±4 | 1854.2±527.9 | returned almost to baseline levels | gradually increased to baseline levels | returned almost to baseline levels | 15-20% | did not affect MAP | 8-10% | 489±206.5 |
